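Cultured in 96-well plates, cells were exposed to test compound for 48 hours across five concentrations. Abbreviation: GI50, concentration required for 50% inhibition of growth. At the TGI there is no net growth.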
Legend:
Test in all cases: NCI tumour cell line growth inhibition, 48 h
CAKI-1 renal = test system: CAKI-1 renal
HCT-15 colon = test system: HCT-15 colon
HOP-62 NSCLC = test system: HOP-62 NSCLC
MALME-3M melanoma = test system: MALME-3M melanoma
NCI-H522 lung = test system: NCI-H522 lung
OVCAR-5 ovarian = test system: OVCAR-5 ovarian
OVCAR-8 ovarian = test system: OVCAR-8 ovarian
SK-MEL-2 melanoma = test system: SK-MEL-2 melanoma
UO-31 renal = test system: UO-31 renal
EKVX NSCLC = test system: EKVX NSCLC

| SMILES | TGI (CAKI-1 renal) [µM] | TGI (HCT-15 colon) [µM] | TGI (HOP-62 NSCLC) [µM] | TGI (MALME-3M melanoma) [µM] | TGI (NCI-H522 lung) [µM] | TGI (OVCAR-5 ovarian) [µM] | TGI (OVCAR-8 ovarian) [µM] | TGI (SK-MEL-2 melanoma) [µM] | TGI (UO-31 renal) [µM] | TGI (EKVX NSCLC) [µM] | GI50 (CAKI-1 renal) [µM] | GI50 (EKVX NSCLC) [µM] | GI50 (HCT-15 colon) [µM] | GI50 (HOP-62 NSCLC) [µM] | GI50 (NCI-H522 lung) [µM] | GI50 (OVCAR-5 ovarian) [µM] | GI50 (OVCAR-8 ovarian) [µM] | GI50 (SK-MEL-2 melanoma) [µM] |
| --- | --- | --- | --- | --- | --- | --- | --- | --- | --- | --- | --- | --- | --- | --- | --- | --- | --- | --- |
| S=c1nc[nH]c2c1ncn2C1CCCO1 (stereo unspecified) | > 100 | > 100 | > 100 | > 100 | > 100 | > 100 | > 100 | > 100 | > 100 |  |  |  |  |  |  |  |  |  |
| CCOC(C)OC1CC(n2cc(C)c(=O)[nH]c2=O)OC1CO (stereo unspecified) |  | > 100 | > 100 | > 100 | > 100 | > 100 | > 100 | > 100 | > 100 | > 100 |  |  |  |  |  |  |  |  |
| CCOC(=O)C1=C(C)N(C2OC(COC(=O)c3ccccc3)C(OC(=O)c3ccccc3)C2OC(=O)c2ccccc2)C(=S)NC1c1ccccc1 (stereo unspecified) | 79.4 |  | > 100 | 78.8 | 66.1 | > 100 | > 100 | > 100 | 99.4 | 62.2 |  |  |  |  |  |  |  |  |
| COc1ccc(C2=NC(c3ccc(Cl)cc3)C(c3ccc(Cl)cc3)N2C(=O)N2CCNC(=O)C2)c(OC(C)C)c1 (stereo unspecified) | 3.22 | 3.86 | 3.38 |  | 4.09 | 5.54 | 6.14 | 4.15 |  | 4.18 | 1.8 | 2.08 | 1.91 | 1.9 | 2.09 | 2.23 | 2.46 | 2.08 |
| CN1CN(C(=O)N2CN(C)C(=O)N(C)C2)CN(C)C1=O | > 100 | > 100 | > 100 | > 100 | > 100 | > 100 | > 100 | > 100 | > 100 | > 100 |  |  |  |  |  |  |  |  |
| C(=C/c1nc2ccccc2o1)/c1ccc2c(c1)OCO2 | 40 | > 100 | 45.7 | > 95.9 | 51.3 | > 100 | > 100 | 36.3 | 49.5 | > 100 |  |  |  |  |  |  |  |  |
| CC1OC(=O)C(C(C)C)NC(=O)C(C(C)C)OC(=O)C(C(C)C)NC(=O)C(C)OC(=O)C(C(C)C)NC(=O)C(C(C)C)OC(=O)C(C(C)C)NC(=O)C(C)OC(=O)C(C(C)C)NC(=O)C(C(C)C)OC(=O)C(C(C)C)NC1=O (stereo unspecified) | 0.00345 | 4.53 | 0.0144 | 3.63 | < 0.0001 |  | 3.46 | 0.167 | 0.0541 |  |  | < 0.0001 | 0.000358 | < 0.0001 | < 0.0001 |  | < 0.0001 |  |
| NS(=O)(=O)c1ccc(N=Nc2ccc(O)c(C(=O)O)c2)cc1 | > 100 | > 100 | > 100 | > 100 | > 100 | > 100 | > 100 | > 100 | > 100 | > 100 |  |  |  |  |  |  |  |  |

From PubChem BioAssay (NCI)
